Results taken from ChEMBL document CHEMBL6114991, “Design, synthesis, and biological evaluation of novel quinoline carboxylic acid based styryl/alkyne hybrid molecule as a potent anti-adipogenic and antidyslipidemic agent via activation of Wnt/β-catenin pathway” (Eur J Med Chem, 2025).
Activity calls are given as the source filed them. No cut-off for these calls is given here.

How the values were obtained:
[1] = AUC in Golden Syrian hamster at 100 mg/kg, po measured upto 24 hrs by LC-MS/MS analysis; assay type: ADME, organism-based, Mesocricetus auratus; conditions: in vivo
[2] = Toxicity in Golden Syrian hamster assessed as body weight gain at 100 mg/kg, po administered for 7 days; assay type: organism-based, Mesocricetus auratus; conditions: in vivo, 168 h, time 7 day
[3] = Cmax in Golden Syrian hamster at 100 mg/kg, po measured upto 24 hrs by LC-MS/MS analysis; assay type: ADME, organism-based, Mesocricetus auratus; conditions: in vivo
3T3-L1 [4] = assay: Anti-adipogenic activity in mouse 3T3-L1 cells assessed as reduction in lipid accumulation at 10 uM in presence of FH535 by microscopic analysis; assay type: functional, cell-based
3T3-L1 [5] = assay: Anti-adipogenic activity in mouse 3T3-L1 cells assessed as increase in GSK3beta mRNA expression at 10 uM incubated for 16 to 24 hrs; assay type: functional, cell-based; conditions: time 16-24 hrs
[6] = Half life in Golden Syrian hamster at 100 mg/kg, po measured upto 24 hrs by LC-MS/MS analysis; assay type: ADME, organism-based, Mesocricetus auratus; conditions: in vivo
3T3-L1 [7] = assay: Induction of cell cycle arrest in mouse 3T3-L1 cells assessed as reduction in cyclin D1 level at 10 uM incubated for 16 to 24 hrs by immunoblotting analysis; assay type: functional, cell-based; conditions: time 16-24 hrs
3T3-L1 [8] = assay: Anti-adipogenic activity in mouse 3T3-L1 cells assessed as reduction in lipid accumulation at 10 uM measured at upto 5 days; assay type: functional, cell-based; conditions: time <= 5.0 day
3T3-L1 [9] = assay: Inhibition of adipogenesis in mouse 3T3-L1 cells assessed as downregulation of FABP4 expression at 10 uM measured at upto 5 days by immunoblotting analysis; assay type: functional, cell-based; conditions: time <= 5.0 day
Syrian golden hamster = assay: Anti-dyslipidemic activity in HFD-induced Golden Syrian hamster model assessed as decrease in PPARgamma level at 100 mg/kg, po administered for 7 days by Western blot analysis; assay type: functional, organism-based; conditions: Mesocricetus auratus, time 7.0 day
3T3-L1 [10] = assay: Anti-adipogenic activity in mouse 3T3-L1 cells assessed as reduction in lipid accumulation at 10 uM measured at upto 7 days; assay type: functional, cell-based; conditions: time <= 7.0 day
3T3-L1 [11] = assay: Anti-adipogenic activity in mouse 3T3-L1 cells at 20 uM relative to control; assay type: functional; conditions: time 72 hrs
[12] = Toxicity in Golden Syrian hamster assessed as reduction in TG level in serum at 100 mg/kg, po administered for 7 days; assay type: organism-based, Mesocricetus auratus; conditions: in vivo, 168 h, time 7 day
3T3-L1 [13] = assay: Inhibition of adipogenesis in mouse 3T3-L1 cells assessed as downregulation of FABP4 expression at 10 uM measured at upto 7 days by immunoblotting analysis; assay type: functional, cell-based; conditions: time <= 7.0 day
3T3-L1 [14] = assay: Induction of cell cycle arrest in mouse 3T3-L1 cells assessed as reduction in cyclin D3 level at 10 uM incubated for 16 to 24 hrs by immunoblotting analysis; assay type: functional, cell-based; conditions: time 16-24 hrs

- AUC at 24 h [1]: 35700 ng·h/mL
- Cmax [3]: 17700 ng/mL
- half-life [6]: 3.64 h
Compound: Cc1ccc(/C=C/c2ccc(-c3cc(C(=O)O)c4cc(F)ccc4n3)cc2)cc1
- Activity [2]: Non-toxic
- Activity (3T3-L1 [4]): Active
- Activity (3T3-L1 [5]): Active
- Activity (3T3-L1 [7]): Active
- Activity (3T3-L1 [8]): Active
- inhibition (3T3-L1 [9]): Active
- Activity (Syrian golden hamster): Active
- Activity (3T3-L1 [10]): Active
- Activity (3T3-L1 [11]): 64%
- Activity [12]: Non-toxic
- inhibition (3T3-L1 [13]): Active
- Activity (3T3-L1 [14]): Active
